Source: DBAASP
Converted amounts (≈) assume the structure as drawn.

Key:
Assay in all cases: ≥ marks a high value that may be exact or a test limit, other limits are often not marked, values filed in µg/mL are converted to µM
[1] = tested on: Staphylococcus aureus ATCC 25923
[2] = tested on: Salmonella enterica subsp. enterica serovar Typhimurium ATCC 13311
[3] = tested on: Escherichia coli ATCC 25922
[4] = tested on: Pseudomonas aeruginosa ATCC 27853
[5] = tested on: Enterococcus faecalis ATCC 29212
[6] = tested on: Listeria monocytogenes 10403s
Vibrio cholerae O1 Inaba = tested on: Vibrio cholerae O1 Inaba
[7] = tested on: Staphylococcus epidermidis ATCC 12228
Escherichia coli O157:H7 = tested on: Escherichia coli O157:H7
[8] = tested on: Bacillus cereus ATCC 11778
[9] = tested on: Shigella sonnei ATCC 11060
Acinetobacter baumannii = tested on: Acinetobacter baumannii
Pseudomonas aeruginosa = tested on: Pseudomonas aeruginosa
Pseudomonas aeruginosa 1 = tested on: Pseudomonas aeruginosa 1
[10] = tested on: Staphylococcus aureus 1056
[11] = tested on: Staphylococcus aureus MW2
[12] = tested on: Candida albicans ATCC 10231
[13] = tested on: Staphylococcus aureus ATCC 29231
[14] = tested on: Klebsiella aerogenes ATCC 13048

Question: With `CC[C@H](C)[C@H](NC(=O)[C@H](CCCN=C(N)N)NC(=O)[C@H](CCCCN)NC(=O)[C@H](C)NC(=O)[C@@H](NC(=O)[C@@H](N)CCCCN)[C@@H](C)CC)C(=O)N[C@@H](Cc1c[nH]c2ccccc12)C(=O)N[C@@H](CCCCN)C(=O)N[C@H](C(=O)N[C@@H](CC(C)C)C(=O)N[C@@H](CCCN=C(N)N)C(=O)N[C@@H](CCCN=C(N)N)C(=O)N[C@@H](CCCN=C(N)N)C(=O)N[C@@H](CC(C)C)C(N)=O)[C@@H](C)CC` [KIAKRIWKILRRRL] as the compound, how does the MIC [1] read?
Answer: The MIC was 8.45 µM (≈ 15.6 µg/mL).

Question: What about the MIC [2] of the same compound?
Answer: The MIC was 1.05 µM (≈ 1.95 µg/mL).

Question: And the MIC [3]?
Answer: The MIC was 8.45 µM (≈ 15.6 µg/mL).

Question: What about the MIC [4] of the same compound?
Answer: Its MIC is 2.11 µM (≈ 3.91 µg/mL).

Question: What about the MIC [5] of the same compound?
Answer: The MIC was 67.6 µM (≈ 125 µg/mL).

Question: And the MIC [6]?
Answer: Its MIC is 1.05 µM (≈ 1.95 µg/mL).

Question: And the MIC (Vibrio cholerae O1 Inaba)?
Answer: Its MIC is 4.22 µM (≈ 7.81 µg/mL).

Question: And the MIC [7]?
Answer: Its MIC is 2.11 µM (≈ 3.91 µg/mL).

Question: What about the MIC (Escherichia coli O157:H7) of the same compound?
Answer: Its MIC is ≥ 33.8 µM.

Question: What about the MIC [8] of the same compound?
Answer: Its MIC is 4.22 µM (≈ 7.81 µg/mL).

Question: What about the MIC [9] of the same compound?
Answer: Its MIC is 2.11 µM (≈ 3.91 µg/mL).

Question: And the MIC (Acinetobacter baumannii)?
Answer: The MIC was 2.11 µM (≈ 3.91 µg/mL).

Question: What does the source list for `CC[C@H](C)[C@H](NC(=O)[C@H](CCCN=C(N)N)NC(=O)[C@H](CCCCN)NC(=O)[C@H](C)NC(=O)[C@@H](NC(=O)[C@@H](N)CCCCN)[C@@H](C)CC)C(=O)N[C@@H](Cc1c[nH]c2ccccc12)C(=O)N[C@@H](CCCCN)C(=O)N[C@H](C(=O)N[C@@H](CC(C)C)C(=O)N[C@@H](CCCN=C(N)N)C(=O)N[C@@H](CCCN=C(N)N)C(=O)N[C@@H](CCCN=C(N)N)C(N)=O)[C@@H](C)CC` [KIAKRIWKILRRR]?
Answer: MIC [1]: 36 µM (≈ 62.5 µg/mL); MIC [2]: 1.12 µM (≈ 1.95 µg/mL); MIC [3]: 18 µM (≈ 31.2 µg/mL); MIC [5]: 144 µM (≈ 250 µg/mL); MIC [6]: 2.25 µM (≈ 3.91 µg/mL); MIC (Vibrio cholerae O1 Inaba): 18 µM (≈ 31.2 µg/mL); MIC [7]: 2.25 µM (≈ 3.91 µg/mL); MIC (Escherichia coli O157:H7): 18 µM (≈ 31.2 µg/mL); MIC (Pseudomonas aeruginosa): 4.5 µM (≈ 7.81 µg/mL); MIC [8]: 9 µM (≈ 15.6 µg/mL); MIC [9]: 2.25 µM (≈ 3.91 µg/mL); MIC (Acinetobacter baumannii): 4.5 µM (≈ 7.81 µg/mL); MIC (Pseudomonas aeruginosa 1): 2.25 µM (≈ 3.91 µg/mL)

Question: What does the source list for `CC(C)C[C@@H]1NC(=O)[C@H](Cc2cnc[nH]2)NC(=O)[C@H](C)NC(=O)[C@@H]2CCCN2C(=O)[C@@H]2CSSC[C@@H](C(=O)N[C@@H](CCCCN)C(=O)N[C@@H](Cc3c[nH]c4ccccc34)C(=O)N3CCC[C@H]3C(=O)N[C@@H](Cc3c[nH]c4ccccc34)C(=O)N[C@@H](CC(=O)O)C(=O)N[C@H](C(=O)O)C(C)C)NC(=O)[C@@H]3CSSC[C@H](NC(=O)[C@H](Cc4ccccc4)NC(=O)[C@@H](N)CC(C)C)C(=O)N[C@@H](CCCN=C(N)N)C(=O)N[C@@H](CCCCN)C(=O)NCC(=O)N[C@@H]([C@@H](C)O)C(=O)N[C@@H](CSSC[C@H](NC(=O)[C@H](CO)NC(=O)CNC(=O)[C@H](C(C)C)NC(=O)[C@H](CCCCN)NC(=O)[C@H](C(C)C)NC1=O)C(=O)N[C@@H](Cc1ccccc1)C(=O)NCC(=O)N[C@@H](Cc1ccccc1)C(=O)N[C@@H](CCCN=C(N)N)C(=O)N[C@@H](C)C(=O)N3)C(=O)N[C@@H](Cc1cnc[nH]1)C(=O)N[C@@H](Cc1ccccc1)C(=O)NCC(=O)NCC(=O)N2` [LFCRKGTCHFGGCPAHLVKVGSCFGFRACCKWPWDV]?
Answer: MIC [10]: 0.291 µM (≈ 1.17 µg/mL); MIC (Escherichia coli O157:H7): 0.321 µM (≈ 1.29 µg/mL)

Question: How did the MIC [11] turn out when `CC[C@H](C)[C@H](NC(=O)[C@H](CCCCN)NC(=O)[C@H](CCCCN)NC(=O)[C@H](CC(C)C)NC(=O)[C@@H](NC(=O)[C@H](CCCCN)NC(=O)[C@H](Cc1c[nH]c2ccccc12)NC(=O)[C@@H](N)CC(C)C)[C@@H](C)CC)C(=O)N[C@@H](Cc1c[nH]c2ccccc12)C(=O)N[C@@H](CCCN=C(N)N)C(=O)N[C@H](C(=O)NCC(=O)N[C@@H](Cc1c[nH]c2ccccc12)C(=O)N[C@@H](CC(N)=O)C(=O)N[C@@H](Cc1c[nH]c2ccccc12)C(=O)N[C@@H](CCCN=C(N)N)C(=O)O)C(C)C` [LWKILKKIWRVGWNWR] was run?
Answer: The MIC was 14.7 µM (≈ 32 µg/mL).

Question: And the MIC [12]?
Answer: The MIC was 29.3 µM (≈ 64 µg/mL).

Question: What about the MIC [13] of the same compound?
Answer: Its MIC is 7.33 µM (≈ 16 µg/mL).

Question: What about the MIC [14] of the same compound?
Answer: Its MIC is ≥ 58.6 µM.
